Assays:
ataxin-3 = assay: Ataxin-3 depletion in MEF cells (immunoblot); format: cell-based; conditions: 50 or 100 μM IU1
Protocol: (§1) Other proteins that have been implicated in proteotoxic mechanisms were also tested.

HEK293 cells = assay: MTT cell survival upon menadione oxidative stress, HEK293; format: cell-based, human; conditions: 6 hr, menadione 4 hr
[1] = molecular target: T1, Usp14/26S proteasome complexes (Homo sapiens, UniProt P54578); assay: Ub-AMC hydrolysis by VS-proteasomes reconstituted with recombinant Usp14; format: biochemical
T1 construct: GST (N, cleaved yes); made in house; host or cells: E. coli Rosetta 2 (DE3) for Usp14
Protocol: Compounds were screened for Usp14/26S inhibition in 384-well low-volume plates in duplicate. Data processing was done by a robust Z-score method and each compound was plotted using Spotfire software. Compounds over the cut-off of Z>5 were mostly autofluorescent and were therefore not counted. To exclude quenching compounds that only affect AMC fluorescence, 312 primary hits were tested for quenching of AMC amine, and pure quenchers were scored as false-positives and excluded from further analysis (FIG. 8B).
The data plot of each experiment was fit into a four parameter logistic model (the Hill-slope model) based on guidelines from the NIH Chemical Genomics Center.

Tau = Tau degradation in MEF cells (immunoblot, RT-PCR); format: cell-based
From the text: No effect was seen on Tau mRNA levels (FIG. 21B).

MEF cells [2] = assay: TUNEL apoptosis assay; format: cell-based; conditions: 100 μM IU1, 6 hr
Protocol: (§2) Effects on cell viability became apparent at concentrations over 100 μM, well above the doses required to enhance the degradation of Tau, TDP-43, ataxin-3, and oxidized proteins (FIGS. 21-23).

[3] = molecular target: T2, Usp14 that had not been loaded onto a proteasome (Homo sapiens, UniProt P54578); assay: Activity of Usp14 not complexed to the proteasome; format: biochemical
T2 construct: GST (N, cleaved yes); made in house; host or cells: E. coli Rosetta 2 (DE3)

MEFs and 293 cells = assay: Cell proliferation by real-time microscopy (confluency); format: cell-based
MEF cells [4] = assay: MTT cell survival upon menadione oxidative stress, MEF; format: cell-based
From the text: The effect on the IC50 for menadione is almost 4-fold.

[5] = Cellular entry, release and stability of compound (LC/MS, UV absorption)
From the text: Cell lysates were collected and ethyl acetate extraction was used to prepare mass spectrometer samples.

GFP-ODC = assay: Degradation of ubiquitin-independent proteasome substrate in cells; format: cell-based
Protocol: Proteasome inhibitors (30 μM MG132, 10 μM PS-341) were treated 4 hr before lysis.
as §1

[6] = tested on: glial fibrillary acidic protein (GFAP); assay: GFAP depletion in MEF cells (immunoblot); format: cell-based; conditions: MEF cells, 25, 50 or 100 μM IU1
Protocol: as §1

[7] = Hydrogen peroxide toxicity; format: cell-based; conditions: data not shown
oxidized proteins = assay: Oxidized protein accumulation after menadione (DNPH immunoblot); format: cell-based; conditions: MEFs, 75 μM IU1 4 hours, then 63 μM menadione 45 minutes
From the text: Oxidized proteins form another class of proteasome substrates that play an important role in human health. Harmful oxidized proteins accumulate upon ageing and are implicated in a variety of age-related diseases and disorders (Stadtman (2006) Protein oxidation and aging. Free Radic. Res. 40, 1250-1258; Ahmed et al. (2007) Protein oxidative modifications and replicative senescence of WI-38 human embryonic fibroblasts. Ann. NY Acad. Sci., 1119, 88-96; Moskovitz et al. (2001). Methionine sulfoxide reductase (MsrA) is a regulator of antioxidant defense and lifespan in mammals. Proc. Nat. Acad. Sci. USA, […], 12920-12925.). Protein oxidation was induced by treating cells with menadione, and oxidized species were visualized using an antibody specific for protein carbonyls. […] The cells were lysed and lysates were incubated with DNPH and immunoblotted with anti-DNPH antibody to assay for oxidized proteins.

[8] = tested on: eight deubiquitinating enzymes of human origin; assay: Deubiquitinase selectivity panel (Ub-AMC hydrolysis); format: biochemical; conditions: 17 μM
[9] = molecular target: T3, Usp14/proteasome complexes (Homo sapiens, UniProt P54578); assay: In vitro ubiquitin chain trimming assay with polyubiquitinated cyclin B; format: biochemical
T3 construct: GST (N, cleaved yes); made in house; host or cells: E. coli Rosetta 2 (DE3) for Usp14
Protocol: Immunoblot was performed using an antibody specific for human cyclin B (CCNB).
(§3) The effect of Usp14 on the degradation of ubiquitinated substrates was examined using an in vitro degradation assay using the ubiquitin-dependent proteasome substrate polyubiquitinated cyclin B (Ubn-ClnB).
To separate chain trimming from substrate degradation, these assays were done in the presence of proteasome inhibitors. The effectiveness of the proteasome inhibitors is evidenced by the accumulation of unmodified cyclin B in the assay (FIG. 15).

[10] = molecular target: T4, Usp14-containing proteasomes (Homo sapiens, UniProt P54578); assay: In vitro Ubn-ClnB degradation assay; format: biochemical
T4 construct: GST (N, cleaved yes); made in house; host or cells: E. coli Rosetta 2 (DE3) for Usp14
From the text: as §3
It was next tested whether IU1 could serve as an enhancer of substrate degradation by the proteasome.

[11] = molecular target: T5, proteasome-bound form of Uch37 (Homo sapiens, UniProt Q9Y5K5); assay: Ub-AMC hydrolysis by 26S proteasomes not treated with Ub-VS (lacking Usp14); format: biochemical
T5 construct: endogenous in cells

[12] = molecular target: T3, Usp14/proteasome complexes; assay: Usp14 binding to purified proteasome (immunoblot); conditions: various concentrations of IU1
From the text: The asterisk (*) denotes a nonspecific signal generated by the anti-Usp14 antibody.

Usp14 = Usp14 (Homo sapiens, UniProt P54578); assay: Mass spectrometry analysis of IU1 inhibited Usp14; format: binding
TDP-43 = TDP-43 depletion in MEF cells (immunoblot); format: cell-based; conditions: 75 μM IU1
Protocol: as §1

[13] = Compound concentration in serum-containing media / release, 293 cells; format: in vitro ADME; conditions: 1 hr to 48 hr
Protocol: The experiment was performed as in FIG. 42A.

UbB, α6, α7 = assay: Quantitative RT-PCR of ubiquitin and proteasome subunit genes in MEFs; format: cell-based; conditions: +/+ and Usp14−/− MEFs, graded doses, 6 hr
Isopeptidase T (IsoT) = Isopeptidase T (IsoT) (Homo sapiens, UniProt P45974); assay: Isopeptidase T deubiquitinase activity; format: biochemical; conditions: 8 μM, 17 μM
murine Psmb5 promoter = assay: Psmb5 promoter luciferase reporter in MEFs; format: cell-based; conditions: wild-type and Usp14−/− MEFs, 25 or 50 μM, 8 hr
Protocol: For normalization of luciferase activity, a control experiment using the promoter-less pGL3 plasmid was performed. Values are mean±SD from three independent experiments. RLU, relative light units.

[14] = tested on: MEF, HEK293 and HeLa cells; assay: MTT cell viability assay; format: cell-based; conditions: MTT after 6, 12, 24 or 48 hours
Protocol: as §2

proteasome = assay: Proteasome integrity by native PAGE of total cell extracts; format: cell-based; conditions: 100 μM IU1, 6-hr
From the text: RP2-CP and RP-CP indicate distinct forms of the 26S proteasome.

mCherry-NBR1 = mCherry-NBR1 immunofluorescence in wild-type MEFs; format: cell-based; conditions: 200 μM, 6 hr

T2 sequence (P54578 whole entry): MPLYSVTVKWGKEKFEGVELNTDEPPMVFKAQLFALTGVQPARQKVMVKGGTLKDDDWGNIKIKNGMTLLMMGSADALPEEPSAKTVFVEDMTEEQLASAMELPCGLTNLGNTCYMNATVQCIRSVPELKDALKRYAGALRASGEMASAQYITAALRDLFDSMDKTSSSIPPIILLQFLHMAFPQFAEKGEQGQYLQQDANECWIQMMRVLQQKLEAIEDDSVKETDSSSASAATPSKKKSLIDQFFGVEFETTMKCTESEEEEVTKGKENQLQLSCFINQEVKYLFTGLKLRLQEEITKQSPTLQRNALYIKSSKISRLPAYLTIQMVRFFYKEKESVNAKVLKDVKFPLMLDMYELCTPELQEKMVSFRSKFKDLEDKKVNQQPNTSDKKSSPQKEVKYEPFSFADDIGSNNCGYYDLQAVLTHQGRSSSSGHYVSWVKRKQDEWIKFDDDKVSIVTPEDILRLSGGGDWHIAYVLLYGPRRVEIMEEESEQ
Usp14, sequence (P54578 whole entry): as above
Isopeptidase T (IsoT), sequence (P45974 whole entry): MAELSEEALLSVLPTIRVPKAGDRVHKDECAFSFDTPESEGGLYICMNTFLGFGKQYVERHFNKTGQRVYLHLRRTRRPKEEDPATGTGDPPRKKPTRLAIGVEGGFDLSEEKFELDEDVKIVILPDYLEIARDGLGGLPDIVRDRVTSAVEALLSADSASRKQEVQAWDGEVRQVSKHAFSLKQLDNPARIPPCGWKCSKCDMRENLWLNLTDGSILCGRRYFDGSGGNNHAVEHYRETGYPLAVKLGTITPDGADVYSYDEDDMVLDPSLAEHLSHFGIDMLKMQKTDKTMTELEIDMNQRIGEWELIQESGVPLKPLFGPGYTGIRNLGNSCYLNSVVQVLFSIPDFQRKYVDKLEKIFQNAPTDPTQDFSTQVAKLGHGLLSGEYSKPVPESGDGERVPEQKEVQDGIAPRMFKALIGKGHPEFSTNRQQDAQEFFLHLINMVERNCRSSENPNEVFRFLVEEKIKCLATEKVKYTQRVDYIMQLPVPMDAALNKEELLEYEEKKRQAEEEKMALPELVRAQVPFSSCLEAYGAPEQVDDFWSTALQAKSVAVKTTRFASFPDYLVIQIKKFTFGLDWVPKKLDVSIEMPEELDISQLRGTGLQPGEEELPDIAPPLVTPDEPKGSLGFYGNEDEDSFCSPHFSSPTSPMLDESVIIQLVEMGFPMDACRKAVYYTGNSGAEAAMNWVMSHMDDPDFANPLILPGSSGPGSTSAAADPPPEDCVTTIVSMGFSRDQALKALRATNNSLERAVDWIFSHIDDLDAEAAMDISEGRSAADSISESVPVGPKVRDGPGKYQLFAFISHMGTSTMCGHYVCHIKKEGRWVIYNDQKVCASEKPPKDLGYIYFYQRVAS

## Cc1cc(C(=O)CN2CCCC2)c(C)n1-c1ccc(F)cc1 [IU1, 1-[1-(4-fluorophenyl)-2,5-dimethlypyrrol-3-yl]-2-pyrrolidin-1-ylethanone]
ataxin-3
  ataxin-3 level in cells: similarly depleted
HEK293 cells; IU1 50 uM
  effect on the IC50 for menadione: ~4 fold
HEK293 cells; compound 50 uM
  menadione toxicity: reduced this toxicity substantially
[1]; IU1 100 μM added 30 min after 1 μM Ub-AMC, 2.5 nM proteasome, 30 nM USP14
  lag period of inhibition: without a detectable lag period
[1]; activity after up to three ultrafiltration spins
  reversibility of inhibition of Usp14: rapidly reversible
[1]; proteasome-bound Usp14, Ub-AMC
  inhibition of Usp14 deubiquitinase: potent inhibitor of proteasome-bound Usp14
Tau; MEF cells, 25 to 100 μM, 6 hours
  Tau levels: reduced Tau levels at all concentrations tested
Tau; MEF cells, 25 to 100 μM, quantitative RT-PCR
  Tau mRNA levels: No effect
Tau; wild-type MEF, 75 μM IU1 and/or BafA1, 6 hrs
  dependence of Tau degradation stimulation on autophagy: not mediated by autophagy
MEF cells [2]
  induction of apoptosis: did not noticeably induce apoptosis
[3]
  inhibition of Usp14 not complexed to the proteasome: failed to inhibit
MEFs and 293 cells; 120 μM
  inhibition of cellular proliferation at 120 μM: only a slight inhibition
MEFs and 293 cells; below 120 μM
  inhibition of cellular proliferation at lower concentrations: no apparent inhibition
MEF cells [4]
  effect on cell survival upon oxidative stress: show this effect as well
[5]; 50 μM added to medium, MEFs
  time to reach steady-state concentration within cells: ≤ 1 h
[5]; 50 μM added to medium, MEFs, LC/MS
  steady-state concentration within cells: ~19 µM
[5]; 50 μM for one hour, then fresh media
  release of internalized compound from wild-type MEF cells: rapid release
[5]; 1 hr to 48 hr
  concentration in serum-containing media of Usp14−/− MEF cells: comparable concentration
GFP-ODC
  degradation of GFP-ODC: little or no effect
[6]
  GFAP level in cells: similarly depleted
[7]
  hydrogen peroxide toxicity: reduced the toxicity
Oxidized proteins
  accumulation of oxidized proteins: reduced
[8]
  inhibition of other tested deubiquitinating enzymes: failed to significantly inhibit
[8]; lower concentrations of Ub-AMC
  specificity for USP14 versus Ub-AMC concentration: observed independently of Ub-AMC concentration
[9]; proteasome purified and assayed in presence of ADP
  concentration effective at inhibition of chain trimming: approximately 5 μM
[9]; with Usp14, presence of proteasome inhibitors
  chain trimming, Usp14/proteasome complexes: reduced the chain trimming to a level similar to that of the proteasome complexes that lacked Usp14
[9]; without Usp14, presence of proteasome inhibitors
  release of ubiquitin chains from cyclin B, proteasomes that lack Usp14: little or no effect
[10]; 34 μM IU1
  degradation of Ub-cyclin B by Usp14-containing proteasomes: stimulated the activity of Usp14-containing proteasomes
  substrate degradation or chain trimming by proteasomes that lack Usp14: no effect
[10]; catalytically inactive USP14
  cyclin B degradation in the presence of USP14-CA: does not affect cyclin B degradation
[11]
  inhibition of proteasome-bound Uch37: does not inhibit
[12]
  effect on Usp14 complexing with the proteasome: did not antagonize Usp14 complexing with the proteasome
Usp14
  covalent IU1-Usp14 adducts: failed to detect any covalent IU1-Usp14 adducts
TDP-43
  TDP-43 level in cells: similarly depleted
[13]
  concentration in serum-containing media of HEK293 cells: comparable concentration
UbB, α6, α7
  transcription of UbB: does not induce the transcription
  transcription of α6: does not induce the transcription
  transcription of α7: does not induce the transcription
Isopeptidase T (IsoT)
  inhibition of Isopeptidase T: lack of inhibition
Murine Psmb5 promoter
  transcription of Psmb5 gene: does not induce the transcription
[14]
  concentration at which effects on cell viability became apparent: over 100 μM
proteasome
  integrity of proteasome: does not affect the integrity of proteasome

## CO/C1=C\C(C)=C\[C@@H](C)[C@@H](O)[C@@H](C)C/C(C)=C/C=C/[C@H](OC)[C@@H]([C@@H](C)[C@@H](O)[C@H](C)[C@@]2(O)C[C@@H](O)[C@H](C)[C@@H](C(C)C)O2)OC1=O [bafilomycin A1]
mCherry-NBR1
  immunofluorescence signal of mCherry-NBR1: significantly increased
